From publication PMC7248426 (Translational Oncology, 2020)

Key:
[1] = tested on: five colon cancer cells; experiment: FITC-labeled peptide immunofluorescence assay, colon cancer cells; assay type: cell-based, human; settings: fluorescein-labeled peptide, 10 μM, 1 hour at RT, Figure 1B
[2] = tested on: CCD841 cells; experiment: FITC-labeled peptide immunofluorescence assay, control cells; assay type: cell-based, human; settings: fluorescein-labeled peptide, 10 μM, 1 hour at RT, Figure 1B
[3] = tested on: five colon cancer cell lines; experiment: Flow cytometry; assay type: cell-based, human; settings: FITC-L20 10 μM, 1 hour at RT, all colon cancer cells, Figure 1C
[4] = tested on: gastric cancer cells including AGS, SNU216, and SNU638; experiment: L20 peptide binding to gastric cancer cells; assay type: cell-based; settings: Figure 1D

Sequence: ANLNLWTDYIRW [L20 peptide]
- fluorescence on colon cancer cells [1]: very intense fluorescence
- fluorescence on the control cell line [2]: negligible
- FACS fluorescence compared to the control peptide [3]: right shift of fluorescence
- fluorescence in gastric cancer cell lines compared to the control cells [4]: did not show higher fluorescence
